Assay results reported in patent publication US20220088011A1, “THERAPEUTIC AGENT FOR A TUMOR COMPRISING AN IDO INHIBITOR ADMINISTERED IN COMBINATION WITH AN ANTIBODY” (KYOWA KIRIN CO., LTD., priority 2015, published 2022).

Assays:
A431 cells = assay: ADCC of cetuximab against A431 cells by human PBMCs pre-incubated in conditioned medium; format: cell-based; conditions: human PBMCs pre-incubated 7 days in conditioned medium of KATO-III + IFN-γ + 100 nmol/L compound
Procedure: (§1) KATO-III cells (1.25×10^6 cells) were treated with 25 ng/mL recombinant human IFN-γ. […] Three days later, cells and supernatants were separated by centrifugation. The supernatants were used as conditioned medium. The conditioned medium was used for incubation of human PBMCs or NK cells (section 2.4.2), and measurement of Kyn and Trp (section 2.4.4).
(§2) NK cells were isolated from human PBMCs using NK isolation kit (Miltenyi Biotec, Cat. No. 130-092-657) and autoMACS instrument. Human PBMCs or NK cells were cultured in the conditioned medium (section 2.4.1) in a CO2 incubator. After 7 days, cells were harvested and counted, and used as effector cells. PBMCs and NK cells used as effector cells were suspended in the assay medium (RPMI1640 containing 10 vol % heat-inactivated fetal bovine serum and 1 vol % Penicillin-Streptomycin) to 5×10^6 cells/mL (PBMCs) or 4×10^5 cells/mL (NK cells). TL-Om1 cells, HH cells, SK-BR-3 cells, Raji cells or A431 cells (1×10^6 cells/each cell line) were labeled with 1.85 MBq of Na2^51CrO4 (PerkinElmer) for over 1 hour at 37° C. in a CO2 incubator. The cells were washed 3 times with assay medium. The radiolabeled cells used as target cells were suspended in 5 mL of the assay medium to 2×10^5 cells/mL. […]

TL-Om1 cells [1] = assay: ADCC of mogamulizumab against TL-Om1 cells by purified human NK cells pre-incubated in conditioned medium; format: cell-based
Procedure: as §1
(§3) NK cells were isolated from human PBMCs using NK isolation kit (Miltenyi Biotec, Cat. No. 130-092-657) and autoMACS instrument. Human PBMCs or NK cells were cultured in the conditioned medium (section 2.4.1) in a CO2 incubator. After 7 days, cells were harvested and counted, and used as effector cells. […] The radioactivity was counted with a microplate scintillation counter (TopCount NXT, PerkinElmer).
(§4) The percentage of cytotoxicity was calculated according to the following formula: […]
(§5) E is the experimental released radioactivity (cpm), S is the mean of spontaneous released radioactivity (cpm) by adding the assay medium instead of effector cells and antibody, and M is the mean of maximum released radioactivity (cpm) by adding 10 vol % Triton™ X-100 (Sigma-Aldrich, Cat. No. T9284-100ML) instead of effector cells and antibody. […]

SKOV3 cells = assay: Cytotoxicity of PBMCs against SKOV3 cells with or without Antibody C1 (51Cr release); format: cell-based, human; conditions: PBMCs pre-incubated 7 days in conditioned medium of SKOV3 + 50 ng/mL IFNγ + 100 nmol/L compound, vs conditioned medium DMSO
Procedure: The supernatants of each culture were used as the conditioned medium for pre-incubation of PBMCs.
SKOV3 cells were detached from culture flasks by TrypLE Express (GIBCO). The live cells were adjusted to 1.0×10^6 cells by the ADCC assay medium [RPMI1640 without phenol red (GIBCO) with 10 vol % of dialyzed and heat-inactivated FCS(GIBCO)]. Then, the cells were labeled with approx. 3.7 MBq of Na2^51CrO4 (PerkinElmer) for over 1 hour at 37° C. in a CO2 incubator. The cells were washed three times, and adjusted to 2.0×10^5 cells/mL (1×10^4 cells/50 μL) as the target cells using the ADCC assay medium.
Human PBMCs were cultured in 25 mL of the conditioned medium for 7 days. […]
The cytotoxicity was quantified by measurement of radioactivity in the supernatant of each assay well. […]
Total, T spo, M, or Assay sample was defined and prepared as follows. • Total: Target cell total radioactivity control. This sample was prepared by mixing 50 μL of target cell, 15 μL of detergent (10×Lysis Solution, Promega), and 85 μL of the ADCC assay medium. • T spo: Target cell spontaneous radioactivity control. […]
Each sample was prepared in triplicate. […] The radioactivity (cpm) was counted with a microplate scintillation counter (TopCount NXT, PerkinElmer).
The cytotoxicity (%) was calculated by the following equations using the cpm of each well. […]

SK-BR-3 cells = assay: ADCC of trastuzumab against SK-BR-3 cells by human PBMCs pre-incubated in conditioned medium; format: cell-based; conditions: human PBMCs pre-incubated 7 days in conditioned medium of KATO-III + IFN-γ + 100 nmol/L compound
Procedure: as §1, §2

TL-Om1 cells [2] = assay: ADCC of mogamulizumab against TL-Om1 cells by human PBMCs pre-incubated in medium containing the compound itself; format: cell-based; conditions: human PBMCs pre-incubated in medium containing 100 nmol/L compound for 7 days
Procedure: NK cells were isolated from human PBMCs using NK isolation kit (Miltenyi Biotec, Cat. No. 130-092-657) and autoMACS instrument. Human PBMCs or NK cells were cultured in the conditioned medium (section 2.4.1) in a CO2 incubator. After 7 days, cells were harvested and counted, and used as effector cells. PBMCs and NK cells used as effector cells were suspended in the assay medium (RPMI1640 containing 10 vol % heat-inactivated fetal bovine serum and 1 vol % Penicillin-Streptomycin) to 5×10^6 cells/mL (PBMCs) or 4×10^5 cells/mL (NK cells). TL-Om1 cells, HH cells, SK-BR-3 cells, Raji cells or A431 cells (1×10^6 cells/each cell line) were labeled with 1.85 MBq of Na2^51CrO4 (PerkinElmer) for over 1 hour at 37° C. in a CO2 incubator. The cells were washed 3 times with assay medium. The radiolabeled cells used as target cells were suspended in 5 mL of the assay medium to 2×10^5 cells/mL. […] Fifty μL of the target cells (1×10^4 cells) were plated into 96-well round bottomed culture plates and mixed with 50 μL of antibody dilutions prepared as described above and 50 μL of the effector cells (2.5×10^5 cells). The culture plates were briefly centrifuged at 4° C. and incubated at 37° C. in a CO2 incubator for about 4 hours. […] The radioactivity was counted with a microplate scintillation counter (TopCount NXT, PerkinElmer).

HH cells = assay: ADCC of mogamulizumab against HH cells by human PBMCs pre-incubated in conditioned medium; format: cell-based
Procedure: as §1, §3, §4, §5

TL-Om1 cells [3] = assay: ADCC of mogamulizumab against TL-Om1 cells by human PBMCs pre-incubated in conditioned medium; format: cell-based
Procedure: as §1, §3, §4, §5

Raji cells = assay: ADCC of rituximab against Raji cells by human PBMCs pre-incubated in conditioned medium; format: cell-based; conditions: human PBMCs pre-incubated 7 days in conditioned medium of KATO-III + IFN-γ + 100 nmol/L compound
Procedure: as §1, §2

TL-Om1 cells [4] = assay: ADCC of mogamulizumab against TL-Om1 cells by human PBMCs pre-incubated in conditioned medium of shRNA KATO-III cells; format: cell-based; conditions: PBMCs pre-incubated in conditioned medium 3 (parent + IFN-γ) or 4 (NegaCTRL shRNA + IFN-γ) compared with conditioned medium 1 or 2
Procedure: Parental KATO-III or KATO-III cells stably expressing IDO1 shRNA or NegaCTRL shRNA (1.25×10^6 cells) were treated with 25 ng/mL recombinant human IFN-γ. Cells were incubated in a CO2 incubator. Three days later, cells and supernatants were separated by centrifugation. The supernatants were used as conditioned medium. The conditioned medium was used for incubation of human PBMCs (Section 7.4.5), and measurement of Kyn and Trp (Section 7.4.7).
Human PBMCs were cultured in each conditioned medium (Section 7.4.4) in a CO2 incubator. After 7 days, cells were harvested and counted, and used as effector cells. PBMCs used as effector cells were suspended in the assay medium (RPMI1640 containing 10 vol % heat-inactivated fetal bovine serum and 1 vol % Penicillin-Streptomycin) to 5×10^6 cells/mL. […] The radioactivity was counted with a microplate scintillation counter (TopCount NXT, PerkinElmer).
as §4, §5

NS(=O)(=O)NCCNc1nonc1C(=NO)Nc1ccc(F)c(Br)c1 [Compound B1, 4-({2-[(aminosulfonyl)amino]ethyl}amino)-N-(3-bromo-4-fluorophenyl)-N′-hydroxy-1,2,5-oxadiazole-3-carboximidamide]
effect on the attenuation of ADCC of cetuximab against A431 cells (A431 cells): canceled the attenuation | effect on the attenuation of ADCC of mogamulizumab by NK cells (TL-Om1 cells [1]; purified human NK cells pre-incubated in conditioned medium of KATO-III + IFN-γ + 100 nmol/L compound, TL-Om1 target cells): canceled | cytotoxicity without Antibody C1 (natural killing activity) of PBMCs against SKOV3 cells (SKOV3 cells): higher | cytotoxicity of PBMCs against SKOV3 cells in the presence of Antibody C1 (SKOV3 cells; Antibody C1 0.033-333 ng/mL): higher | effect on the attenuation of ADCC of trastuzumab against SK-BR-3 cells (SK-BR-3 cells): canceled the attenuation | effect of the compound itself on ADCC of mogamulizumab (TL-Om1 cells [2]): did not influence | effect on the attenuation of ADCC of mogamulizumab against HH cells (HH cells; human PBMCs pre-incubated 7 days in conditioned medium of KATO-III + IFN-γ + 100 nmol/L compound): canceled the attenuation | effect on the attenuation of ADCC of mogamulizumab against TL-Om1 cells (TL-Om1 cells [3]; human PBMCs (donor 1, donor 2) pre-incubated 7 days in conditioned medium of KATO-III + IFN-γ + 100 nmol/L compound): canceled the attenuation | effect on the attenuation of ADCC of rituximab against Raji cells (Raji cells): canceled the attenuation

B1: mogamulizumab: humanized anti CCR4 monoclonal antibody (antibody, chains of the INN, looked up, V domains shown)
VH: EVQLVESGGDLVQPGRSLRLSCAASGFIFSNYGMSWVRQAPGKGLEWVATISSASTYSYYPDSVKGRFTISRDNAKNSLYLQMNSLRVEDTALYYCGRHSDGNFAFGYWGQGTLVTVSS
VL: DVLMTQSPLSLPVTPGEPASISCRSSRNIVHINGDTYLEWYLQKPGQSPQLLIYKVSNRFSGVPDRFSGSGSGTDFTLKISRVEAEDVGVYYCFQGSLLPWTFGQGTKVEIK
ADCC by NK cells against TL-Om1 cells (TL-Om1 cells [1]; purified NK cells pre-incubated in conditioned medium 2 (KATO-III + IFN-γ)): attenuated | ADCC against HH cells (HH cells; PBMCs pre-incubated in conditioned medium 2 (KATO-III + IFN-γ)): attenuated | ADCC against TL-Om1 cells (TL-Om1 cells [3]; PBMCs (donor 1, donor 2) pre-incubated in conditioned medium 2 (KATO-III + IFN-γ) compared with conditioned medium 1): attenuated | ADCC against TL-Om1 cells (TL-Om1 cells [4]): attenuated
